Source: PubChem BioAssay (NCI)
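Briefly, cells in 96-well plates were exposed to five compound concentrations for 48 h, and endpoints were estimated by linear interpolation. TGI marks complete inhibition of growth.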

Tests used:
Test in all cases: growth of human tumour cells (NCI), 48 h
SF-539 CNS = system: SF-539 CNS
HS 578T breast = system: HS 578T breast
MDA-MB-435 = system: MDA-MB-435
SK-MEL-2 melanoma = system: SK-MEL-2 melanoma
UACC-257 melanoma = system: UACC-257 melanoma
PC-3 prostate = system: PC-3 prostate
U251 CNS = system: U251 CNS
SN12C renal = system: SN12C renal
CAKI-1 renal = system: CAKI-1 renal
SF-295 CNS = system: SF-295 CNS
LXFL 529 NSCLC = system: LXFL 529 NSCLC
HT29 colon = system: HT29 colon
MOLT-4 leukemia = system: MOLT-4 leukemia
OVCAR-5 ovarian = system: OVCAR-5 ovarian
OVCAR-3 ovarian = system: OVCAR-3 ovarian
CCRF-CEM leukemia = system: CCRF-CEM leukemia
SNB-75 CNS = system: SNB-75 CNS
HOP-92 NSCLC = system: HOP-92 NSCLC
RXF 393 renal = system: RXF 393 renal
UO-31 renal = system: UO-31 renal
XF 498 CNS = system: XF 498 CNS
M19-MEL melanoma = system: M19-MEL melanoma
HOP-18 NSCLC = system: HOP-18 NSCLC
KM12 colon = system: KM12 colon
HCT-116 colon = system: HCT-116 colon
K-562 leukemia = system: K-562 leukemia
DU-145 prostate = system: DU-145 prostate
A498 renal = system: A498 renal
SK-OV-3 ovarian = system: SK-OV-3 ovarian
MDA-N = system: MDA-N
NCI/ADR-RES ovarian = system: NCI/ADR-RES ovarian
SNB-19 CNS = system: SNB-19 CNS
NCI-H226 lung = system: NCI-H226 lung
HOP-62 NSCLC = system: HOP-62 NSCLC
T-47D breast = system: T-47D breast
LOX IMVI melanoma = system: LOX IMVI melanoma
BT-549 breast = system: BT-549 breast
HCT-15 colon = system: HCT-15 colon
IGROV1 ovarian = system: IGROV1 ovarian
SK-MEL-28 melanoma = system: SK-MEL-28 melanoma
DLD-1 colon = system: DLD-1 colon
NCI-H460 lung = system: NCI-H460 lung
COLO 205 colon = system: COLO 205 colon
ACHN renal = system: ACHN renal
SR leukemia = system: SR leukemia
M14 melanoma = system: M14 melanoma
HCC-2998 colon = system: HCC-2998 colon
NCI-H522 lung = system: NCI-H522 lung
KM20L2 colon = system: KM20L2 colon
EKVX NSCLC = system: EKVX NSCLC
OVCAR-8 ovarian = system: OVCAR-8 ovarian
SK-MEL-5 melanoma = system: SK-MEL-5 melanoma
HL-60(TB) leukemia = system: HL-60(TB) leukemia
TK-10 renal = system: TK-10 renal
MCF7 breast = system: MCF7 breast
OVCAR-4 ovarian = system: OVCAR-4 ovarian
MDA-MB-231 breast = system: MDA-MB-231 breast
DMS 114 small cell lung = system: DMS 114 small cell lung
NCI-H23 lung = system: NCI-H23 lung
UACC-62 melanoma = system: UACC-62 melanoma
RPMI-8226 leukemia = system: RPMI-8226 leukemia
A549 NSCLC = system: A549 NSCLC
786-0 renal = system: 786-0 renal
SW-620 colon = system: SW-620 colon
MALME-3M melanoma = system: MALME-3M melanoma
SF-268 CNS = system: SF-268 CNS

Measured: TGI

COc1nc(NC2OC(COC(C)=O)C(OC(C)=O)C(OC(C)=O)C2OC(C)=O)c(N=CC=Nc2c(NC3OC(COC(C)=O)C(OC(C)=O)C(OC(C)=O)C3OC(C)=O)nc(OC)n(C)c2=O)c(=O)n1C (stereo not given)
> 86.6 µM: HOP-62 NSCLC
81.9 µM: XF 498 CNS
90.2 µM: HS 578T breast
48.2 µM: SNB-75 CNS
> 93.1 µM: HOP-92 NSCLC
> 100 µM: all other assays above

CCc1cccc(C(C)C)c1NC(=O)C(=O)C1C(=O)NC(=O)NC1=O
not listed: HS 578T breast | MDA-MB-435 | SK-MEL-2 melanoma | PC-3 prostate | MOLT-4 leukemia | DU-145 prostate | MDA-N | NCI/ADR-RES ovarian | T-47D breast | BT-549 breast | MCF7 breast | MDA-MB-231 breast
> 100 µM: all other assays above
